Measured values published in US20190201376A1, “Method for Treating or Preventing Fatty Acid Binding Protein 3 Induced B-amyloid Aggregation Diseases” (NATIONAL TAIWAN NORMAL UNIVERSITY, priority 2017, published 2019).

Experiments:
[1] = target: T1, recombinant human FABP3 protein (FABP3-induced Aβ42 oligomerization) (Homo sapiens, UniProt P05413); assay: Western blot of Aβ42 oligomerization with recombinant FABP3 pre-incubated with artemisinin; type: biochemical; conditions: artemisinin 4 μM preincubated with FABP3 2.5 μM for four hours, then Aβ42 oligomers 2.5 μM 24 hours; 6E10 antibody, ImageJ; p<0.05
T1 construct: purchased Cayman Chemical
Procedure: Synthetic Aβ42 peptides (AnaSpec) were solubilized in hexafluoroisopropanol (HFIP), and then HFIP was allowed to be evaporated completely under nitrogen flow. Aβ42 peptides were resuspended using phosphate buffered saline (PBS) to […], and were incubated to assemble oligomers at room temperature for 24 hours prior to use. The oligomeric status of AP was verified by sodium dodecyl sulfate polyacrylamide gel electrophoresis (SDS-PAGE).
Afterwards, the oligomerization of Aβ42 was analyzed using western blot analysis and detected with 6E10 antibody.

[2] = system: SH-SY5Y cells transfected with human FABP3; assay: MTT cell viability assay, Aβ42 cytotoxicity in FABP3-transfected SH-SY5Y cells; type: cell-based; conditions: pcDNA3/FABP3 SH-SY5Y cells, artemisinin (0-4 μM) pretreatment four hours, Aβ42 2.5 μM 24 hours; increased from 65% without artemisinin; p<0.01
Procedure: (§1) Human neuroblastoma SH-SY5Y cell line was obtained from American Type Culture Collection (ATCC® CRL-2266™) and maintained in Dulbecco's Modified Eagle Medium with nutrient mixture F-12 (DMEM/F12; Invitrogen) media supplemented with 10% FBS, 100 U/mL penicillin and 100 μg/mL streptomycin at 37° C. in a 5% CO2 humidified incubator.
(§2) Human FAPB3 cDNA, which was reverse transcribed from the total RNA of SH-SY5Y cells, was amplified by polymerase chain reaction (PCR) using primers (5′-[…] and 5′-TGCCTCTTCTCATAAGTG) and then cloned into pcDNA™3.1D/V5-His-TOPO vector (Invitrogen). SH-SY5Y cells stably expressing human FABP3 were obtained using lipofectamine transfection with selection via cultivation in DMEM/F12 medium (Gibco) containing 500 µg/mL G418 (Sigma-Aldrich).
Afterwards, purple formazan crystals formed by reduction of MTT in the mitochondria of living cells were dissolved in 100 μl solution containing 10% SDS and 0.01N HCl. The absorbance was measured at 570 nm with an ELISA reader (pQuant; BioTek Instruments, Inc).

[3] = system: stably transfected human FABP3-SH-SY5Y cells; assay: Western blot of Aβ42 oligomerization in stably transfected human FABP3-SH-SY5Y cells; type: cell-based; conditions: artemisinin 4 μM pretreatment 4 hours, Aβ42 2.5 μM 24 hours
Procedure: as §1
as §2, with “5′-TGCCTCTrTCTCATAAGTG)” for “5′-TGCCTCTTCTCATAAGTG)”, “μg/mL” for “µg/mL”
Then, the stably transfected human FABP3-SH-SY5Y cells were washed with PBS and lysed with radioimmunoprecipitation (RIPA) buffer supplemented with cOmplete™ Protease Inhibitor Cocktail (Sigma-Aldrich). The samples with equal amounts of total protein (50 μg) were fractionated by SDS-PAGE and electrotransferred to a polyvinylidene difluoride (PVDF) membrane (Millipore). The membrane was blocked for one hour at room temperature with 10% nonfat milk in TBST buffer (20 mM Tris-HCl, 150 mM NaCl, and 0.1% Tween 20); thereafter, the membrane was incubated with 6E10 (BioLegend), FABP3 (Santa Cruz) or GAPDH (Santa Cruz) antibodies. […]

3×Tg AD transgenic mice [4] = assay: Morris water maze test; type: in vivo; conditions: 3×Tg AD mice, artemisinin 1 mg/kg i.p. every other day from 12 to 36 weeks of age, tested at 36 weeks; p<0.05
Procedure: In the present embodiment, 3×Tg AD transgenic mice were obtained from the Jackson Laboratory (004807), and wild-type C57BL/6 mice were purchased from the National Laboratory Animal Center. The body weights of the animals were measured every eight weeks from 12th to 36th week-old. The animals were i.p. administered with pure water or artemisinin (1 mg/kg) every other day from 12 weeks to 36 weeks of age; the WT-W group was water vehicle-treated wild-type mice; the AD-W group was water vehicle-treated 3×Tg AD transgenic mice; and AD-R group was artemisinin-treated 3×Tg AD transgenic mice. The animals were examined by using behavioral tasks, including Morris water maze test, spontaneous alternation behavior Y-maze test, and novel object recognition task test, when they were 36-week-old. To evaluate whether artemisinin ameliorates the spatial learning and memory deficits, the Morris water maze test was performed. […] After the last trail, mice were subjected to the probe test that the platform was removed, and the time spent in quadrants was recorded by a computer-controlled system.

3×Tg AD transgenic mice [5] = assay: Spontaneous alternation behavior Y-maze test; type: in vivo; conditions: 3×Tg AD mice, artemisinin 1 mg/kg i.p. every other day from 12 to 36 weeks of age, tested at 36 weeks
Procedure: In the present embodiment, 3×Tg AD transgenic mice were obtained from the Jackson Laboratory (004807), and wild-type C57BL/6 mice were purchased from the National Laboratory Animal Center. The body weights of the animals were measured every eight weeks from 12th to 36th week-old. The animals were i.p. administered with pure water or artemisinin (1 mg/kg) every other day from 12 weeks to 36 weeks of age; the WT-W group was water vehicle-treated wild-type mice; the AD-W group was water vehicle-treated 3×Tg AD transgenic mice; and AD-R group was artemisinin-treated 3×Tg AD transgenic mice. The animals were examined by using behavioral tasks, including Morris water maze test, spontaneous alternation behavior Y-maze test, and novel object recognition task test, when they were 36-week-old. The spontaneous alternation behavior Y-maze test was used to estimate short-term memory. The Y-maze was a three-arm maze (30 cm long and 5 cm wide with 12 cm in height) with equal angles and the arms were labeled A, B, and C. The 36-week-old mice (n=6 per group) administered with aforementioned treatment were initially placed within one arm, and the number of arm entries and the number of alternations were recorded for eight min period for each mouse. […] The percentage of alternation was calculated by the following equation: Alternation (%)=[(Number of alternation)/(Total arm entries−2)]×100.

3×Tg AD transgenic mice [6] = assay: Novel object recognition test; type: in vivo; conditions: 3×Tg AD mice, artemisinin 1 mg/kg i.p. every other day from 12 to 36 weeks of age, versus untreated 3×Tg AD mice; p<0.05
Procedure: In the present embodiment, 3×Tg AD transgenic mice were obtained from the Jackson Laboratory (004807), and wild-type C57BL/6 mice were purchased from the National Laboratory Animal Center. The body weights of the animals were measured every eight weeks from 12th to 36th week-old. The animals were i.p. administered with pure water or artemisinin (1 mg/kg) every other day from 12 weeks to 36 weeks of age; the WT-W group was water vehicle-treated wild-type mice; the AD-W group was water vehicle-treated 3×Tg AD transgenic mice; and AD-R group was artemisinin-treated 3×Tg AD transgenic mice. The animals were examined by using behavioral tasks, including Morris water maze test, spontaneous alternation behavior Y-maze test, and novel object recognition task test, when they were 36-week-old. The novel object recognition was conducted to examine whether artemisinin can restore recognition memory, which involves the frontal cortex, entorhinal cortex and hippocampus; it was used to evaluate the inborn tendency of the rodents to explore novel objects rather than familiar ones. During the first two days, mice were habituated to open field (50×40 cm, with 22 cm in height) for two sessions of 10 min each day in order to be familiar with the apparatus. […] The discrimination index was calculated as percentage ratio of TB/(TA+TB)×100. […]

T1 sequence (P05413 whole entry): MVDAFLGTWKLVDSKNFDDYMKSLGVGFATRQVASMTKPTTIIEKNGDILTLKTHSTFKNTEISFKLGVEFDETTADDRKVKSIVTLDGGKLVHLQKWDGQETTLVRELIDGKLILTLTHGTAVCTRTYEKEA

## C[C@@H]1CC[C@H]2[C@@H](C)C(=O)O[C@@H]3O[C@@]4(C)CC[C@@H]1[C@]32OO4 [artemisinin]
[1]
  decrease of Aβ42 tetramer induced by FABP3: 156%
  decrease of Aβ42 trimer induced by FABP3: 144%
[2]
  cell viability: 85%
[3]
  decrease of Aβ42 tetramer induced by FABP3 overexpression: 87%
  decrease of Aβ42 trimer induced by FABP3 overexpression: 78%
3×Tg AD transgenic mice [4]
  time in finding the hidden platform: significantly less time
3×Tg AD transgenic mice [5]
  spatial working memory (spontaneous alternation rate): restored spatial working memory to the extent similar as that of the wild-type group
3×Tg AD transgenic mice [6]
  increment in the discrimination index: 56%
